The values that follow come from US8946286B2, “Organic amine salts of aminobenzoic acid derivatives and method for producing same” (Nissan Chemical Industries, Ltd., priority 2010, dated 2015).

Data set [1] in a line: Initial values of TG loss and related substances before treatment. Type of data set: physicochemical. To be noted: initial value before treatment; for Related substances (%): HPLC, sum of area percentages for analogues; for TG loss (%): TG room temperature to 105° C. The protocol: (§1) Related substance increase (%)
(§2) Each sample was analyzed by high performance liquid chromatography before and after treatment, and the sum of area percentages for analogues in each sample were calculated. • Column: L-column ODS (Chemicals Evaluation and Research Institute, Japan inner diameter 4.6 mm, length 250 mm) • Detector: UV absorptiometer (wavelength; […]) • Column temperature: 40° C. • Flow rate: 1.0 mL/min • Injection volume: 10 μL • Mobile phase: (a) 0.01 M ammonium formate buffer (pH 3.0) • (b) acetonitrile Measurements were carried out with a gradient between the above (a) and (b) solutions.
(§3) About 5 mg of each sample was weighed out before and after treatment and put in an aluminum pan, and TG measurements were performed with the pan left open. The rate of TG loss of each sample was calculated in percentages (%). The measuring conditions are shown below.
(§4) Measuring Conditions; • Instrument:TG8120 (Rigaku Corporation) • Measuring range: room temperature to 105° C. • Heating rate: 5° C./min • Atmosphere: air 50 mL/min

The next data set in a line: Thermal stability test. The conditions noted are these: 60° C. for 2 weeks without humidity control, brown glass vessel. Type of data set: physicochemical. Here is the method: (§5) In the following Assay Examples 2 to 4, the stability of the ethanolamine salt (1), tromethamine salt (2), choline salt (3) and potassium salt (4) of 3-{[((2E)-2-{1-[5-(4-t-butylphenyl)-4-hydroxy-3-thienyl]ethylidene}hydrazino)carbonothioyl]amino}benzoic acid to temperature, humidity and light was evaluated, by related substance increase (%), weight change (%) or TG loss change (%) through appropriate selection.
as §1, §2
The thermal stability of the ethanolamine salt (1), tromethamine salt (2), choline salt (3) and potassium salt (4) of 3-{[((2E)-2-{1-[5-(4-t-butylphenyl)-4-hydroxy-3-thienyl]ethylidene}hydrazino)carbonothioyl]amino}benzoic acid was evaluated as follows.
Each sample was put in a brown glass vessel, and the vessel was left at 60° C. for 2 weeks without humidity control. After 2 weeks, the sample was withdrawn, and the related substance increase (%) was evaluated.

Another data set can be described thus: Hygrostability test. To be noted: 25° C./90% RH for 2 weeks, vessel left open. The class given is physicochemical. The protocol: as §5, §1, §2
(§6) Each sample was weighed before and after treatment, and weight gain was calculated in percentages from the difference in weight. The magnitude of weight change during treatment is an indication of stability of a compound. TG loss change (%);
as §3, §4
(§7) An increase in TG loss from the initial value indicates possibility of moisture absorption and degradation of a compound. Therefore, the magnitude of change in TG loss is an indication of stability of a compound.
The hygrostability of the ethanolamine salt (1), tromethamine salt (2), choline salt (3) and potassium salt (4) of 3-{[((2E)-2-{1-[5-(4-t-butylphenyl)-4-hydroxy-3-thienyl]ethylidene}hydrazino)carbonothioyl]amino}benzoic acid was evaluated as follows.
About 1 g of each sample was put in a transparent glass vessel and maintained at 25° C./90% RH (relative humidity) for 2 weeks with the vessel left open. After 2 weeks, the sample was withdrawn, and the related substance increase (%), weight change (%) and TG loss change (%) were evaluated.

Another data set in a line: Photostability test. The class given is physicochemical. The conditions noted are these: 25° C./60% RH, vessel left open, light of 200 W·hr·m^2 for 57 hours. The protocol:
as §5, §1, §2, §6, §3, §4, §7
The photostability of the ethanolamine salt (1), tromethamine salt (2), choline salt (3) and potassium salt (4) of 3-{[((2E)-2-{1-[5-(4-t-butylphenyl)-4-hydroxy-3-thienyl]ethylidene}hydrazino)carbonothioyl]amino}benzoic acid was evaluated as follows.
About 1 g of each sample was put in a transparent glass vessel at 25° C./60% RH (relative humidity) with the vessel left open and irradiated with light of 200 W·hr·m^2 for 57 hours. […], the sample was withdrawn, and the related substance increase (%), weight change (%) and TG loss change (%) were evaluated.

Data set [2] can be described thus: Oral absorption test on dogs. Type of data set: in vivo. The conditions noted are these: beagle dogs, oral capsule, 360 mg/dog; ratio to Compound A (free form). Here is the method:
Oral Absorption Test on Dogs
The free form (Compound A), potassium salt, organic amine salts (ethanolamine salt and tromethamine salt) and salt of quaternary ammonium ion (choline salt) of 3-{[((2E)-2-{1-[5-(4-t-butylphenyl)-4-hydroxy-3-thienyl]ethylidene}hydrazino)carbonothioyl]amino}benzoic acid in capsule were orally administered to beagle dogs at a dose of 360 mg/dog. 0.5, 1, 2, 4, 6, 8 and 24 hours after the administration, blood was collected to obtain plasma samples. Their concentrations in dog plasma were measured by LC/MS/MS. Using the plasma concentrations obtained, maximum plasma concentration (Cmax), time to maximum plasma concentration (Tmax) and area under the plasma concentration-time curve were calculated.
In FIG. 1, * represents Compound A (Free Acid), ♦ represents the potassium salt (Potassium Salt), □ represents the choline salt (Choline Salt), ▴ represents ethanolamine (Ethanolamine Salt), and ◯ represents the tromethamine salt (Tromethamine Salt).

`C/C(=N\NC(=S)Nc1cccc(C(=O)O)c1)c1csc(-c2ccc(C(C)(C)C)cc2)c1O.NCCO` [(1), Ethanolamine salt of 3-{[((2E)-2-{1-[5-(4-t-butylphenyl)-4-hydroxy-3-thienyl]ethylidene}hydrazino)carbonothioyl]amino}benzoic acid]: in data set [1], the “Related substances (%)” value stood at 0.34% and the “TG loss (%)” value is 0.64%. The Related substance increase in the data set “Thermal stability test” worked out at 0.16%. In addition, in “Hygrostability test”, the Related substance increase is recorded as 0.04%, the TG loss change is reported as −0.26% and the Weight change turned out to be 0.29%. In addition, in the data set “Photostability test”, the Related substance increase is −0.01%, the TG loss change is on record as −0.25% and the Weight change is 0.23%.
On to `C/C(=N\NC(=S)Nc1cccc(C(=O)O)c1)c1csc(-c2ccc(C(C)(C)C)cc2)c1O.NC(CO)(CO)CO` [(2), Tromethamine salt of 3-{[((2E)-2-{1-[5-(4-t-butylphenyl)-4-hydroxy-3-thienyl]ethylidene}hydrazino)carbonothioyl]amino}benzoic acid], for which, in data set [1], the “Related substances (%)” value turned out to be 0.07% and the “TG loss (%)” value stood at 0.11%. Besides, the Related substance increase in the data set “Thermal stability test” is −0.01%. Besides, in “Hygrostability test”, the Related substance increase is listed as −0.03%, the TG loss change is listed as −0.13% and the Weight change is listed as 0.00%. Further, in the data set “Photostability test”, the Related substance increase came to 0.01%, the TG loss change was −0.13% and the Weight change was 0.01%.
For `C/C(=N\NC(=S)Nc1cccc(C(=O)[O-])c1)c1csc(-c2ccc(C(C)(C)C)cc2)c1O.C[N+](C)(C)CCO` [(3), Choline salt of 3-{[((2E)-2-{1-[5-(4-t-butylphenyl)-4-hydroxy-3-thienyl]ethylidene}hydrazino)carbonothioyl]amino}benzoic acid], in data set [1], the “Related substances (%)” value is recorded as 0.34% and the “TG loss (%)” value worked out at 1.19%. In addition, the Related substance increase in “Thermal stability test” is listed as −0.01%. For the same molecule, in “Hygrostability test”, the Related substance increase is recorded as −0.01%, the TG loss change was 0.66% and the Weight change is given as 0.10%. In addition, in the data set “Photostability test”, the Related substance increase worked out at 0.00%, the TG loss change is reported as 0.58% and the Weight change stood at 0.17%.
Take `C/C(=N\NC(=S)Nc1cccc(C(=O)[O-])c1)c1csc(-c2ccc(C(C)(C)C)cc2)c1O.[K+]` [(4), Potassium 3-{[((2E)-2-{1-[5-(4-t-butylphenyl)-4-hydroxy-3-thienyl]ethylidene}hydrazine)carbonothioyl]amino}benzoate, reference compound]: in data set [1], the “Related substances (%)” value was determined as 1.86% and the “TG loss (%)” value came out at 3.18%. The Related substance increase in “Thermal stability test” was determined as 2.46%. For the same molecule, in the data set “Hygrostability test”, the Related substance increase is given as 0.39%, the TG loss change amounted to 7.86% and the Weight change was found to be 23.22%. Moreover, in “Photostability test”, the Related substance increase is given as 0.27%, the TG loss change is on record as 3.16% and the Weight change is given as 9.36%. In addition, in data set [2], the “area under the plasma concentration-time curve (AUC), times better than Compound A” value is recorded as 6.3 times and the “maximum plasma concentration (Cmax), times better than Compound A” value worked out at 7.2 times.
